Results taken from patent US8952024B2, “Herbicidal pyrimidone derivatives” (E I du Pont de Nemours and Company, priority 2009, dated 2015).
Where two headings read alike, the source gives them in different places.

Legend:
Test in all cases: Test B pre-/postemergence plant response
Format in all cases: in vivo
[1] = tested on: large crabgrass (Digitaria sanguinalis); conditions: for pest or weed control at 31 g/ha: 31 g ai/ha; for pest or weed control at 62 g/ha: 62 g ai/ha; for pest or weed control at 125 g/ha: 125 g ai/ha
Outline: (§1)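 Each species received compound formulated in non-phytotoxic solvent with surfactant, either at planting into a loam and sand blend or as a foliar spray once plants reached 2 to 18 cm in peat-based medium. Plants stayed in the greenhouse 13 to 15 days before visual evaluation against controls, scored 0 (no effect) to 100 (complete control).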

[2] = tested on: Surinam grass (Brachiaria decumbens); conditions: for pest or weed control at 31 g/ha: 31 g ai/ha; for pest or weed control at 62 g/ha: 62 g ai/ha; for pest or weed control at 125 g/ha: 125 g ai/ha
Outline: as §1

[3] = tested on: woolly cupgrass (Eriochloa villosa); conditions: for pest or weed control at 31 g/ha: 31 g ai/ha; for pest or weed control at 62 g/ha: 62 g ai/ha; for pest or weed control at 125 g/ha: 125 g ai/ha
Outline: as §1

[4] = tested on: ragweed (common ragweed, Ambrosia elatior); conditions: for pest or weed control at 31 g/ha: 31 g ai/ha; for pest or weed control at 62 g/ha: 62 g ai/ha; for pest or weed control at 125 g/ha: 125 g ai/ha
Outline: as §1

[5] = tested on: yellow nutsedge (Cyperus esculentus); conditions: for pest or weed control at 31 g/ha: 31 g ai/ha; for pest or weed control at 62 g/ha: 62 g ai/ha; for pest or weed control at 125 g/ha: 125 g ai/ha
Outline: as §1

[6] = tested on: downy bromegrass (Bromus tectorum); conditions: for pest or weed control at 31 g/ha: 31 g ai/ha; for pest or weed control at 62 g/ha: 62 g ai/ha; for pest or weed control at 125 g/ha: 125 g ai/ha
Outline: as §1

[7] = tested on: Italian ryegrass (Lolium multiflorum); conditions: Lolium multiflorum, post-emergence, Postemergence, read-out: Plant response rating, Ryegrass, Italian
Outline: as §1

[8] = Digitaria sanguinalis, pre-emergence, Preemergence, scale 0 to 100 (0 no effect, 100 complete control), read-out: Plant response rating, Crabgrass, Large
[9] = Preemergence, 250 g ai/ha, 0 to 100 scale
[10] = Urochloa decumbens, pre-emergence, Preemergence, scale 0 to 100 (0 no effect, 100 complete control), read-out: Plant response rating, Surinam Grass
[11] = Eriochloa villosa, pre-emergence, Preemergence, scale 0 to 100 (0 no effect, 100 complete control), read-out: Plant response rating, Cupgrass, Woolly
[12] = Ambrosia artemisiifolia, pre-emergence, 360 h, Preemergence, scale 0 to 100 (0 no effect, 100 complete control), read-out: Plant response rating, Ragweed
[13] = Cyperus, pre-emergence, Preemergence, scale 0 to 100 (0 no effect, 100 complete control), read-out: Plant response rating, Nutsedge, Yellow
[14] = Bromus tectorum, pre-emergence, Preemergence, scale 0 to 100 (0 no effect, 100 complete control), read-out: Plant response rating, Bromegrass, Downy

COCCn1c(-c2cc(F)cc(F)c2)ncc(C(=O)C2=C(O)C3CCC(C3)C2=O)c1=O (stereo not shown) [Compound 243, 2-(3,5-difluorophenyl)-5-[(2-hydroxy-4-oxobicyclo[3.2.1]oct-2-en-3-yl)carbonyl]-3-(2-methoxyethyl)-4(3H)-pyrimidinone]
100%: pest or weed control at 62 g/ha ([1]; Digitaria sanguinalis, post-emergence, Postemergence, scale 0 to 100 (0 no effect, 100 complete control), read-out: Plant response rating, Crabgrass, Large) | pest or weed control at 125 g/ha ([1]; Digitaria sanguinalis, post-emergence, Postemergence, scale 0 (no effect) to 100 (complete control), 13 to 15 days, read-out: Plant response rating, Crabgrass, Large) | pest or weed control at 250 g/ha ([1]; Digitaria sanguinalis, post-emergence, Postemergence, 250 g ai/ha, scale 0 to 100 (0 no effect, 100 complete control), 13 to 15 days, read-out: Plant response rating, Crabgrass, Large) | pest or weed control at 31 g/ha [1, 8] | pest or weed control at 62 g/ha [1, 8] | pest or weed control at 125 g/ha ([1]; Digitaria sanguinalis, pre-emergence, Preemergence, scale 0 to 100, 0 no effect, 100 complete control, read-out: Plant response rating, Crabgrass, Large) | pest or weed control at 125 g/ha ([2]; Urochloa decumbens, post-emergence, Postemergence, scale 0 (no effect) to 100 (complete control), 13 to 15 days, read-out: Plant response rating, Surinam Grass) | pest or weed control at 250 g/ha ([2]; Urochloa decumbens, post-emergence, Postemergence, 250 g ai/ha, scale 0 to 100 (0 no effect, 100 complete control), 13 to 15 days, read-out: Plant response rating, Surinam Grass) | pest or weed control at 125 g/ha ([2]; Urochloa decumbens, pre-emergence, Preemergence, scale 0 to 100, 0 no effect, 100 complete control, read-out: Plant response rating, Surinam Grass) | pest or weed control at 125 g/ha ([3]; Eriochloa villosa, post-emergence, Postemergence, scale 0 (no effect) to 100 (complete control), 13 to 15 days, read-out: Plant response rating, Cupgrass, Woolly) | pest or weed control at 250 g/ha ([3]; Eriochloa villosa, post-emergence, Postemergence, 250 g ai/ha, scale 0 to 100 (0 no effect, 100 complete control), 13 to 15 days, read-out: Plant response rating, Cupgrass, Woolly) | pest or weed control at 250 g/ha ([4]; Ambrosia artemisiifolia, post-emergence, 360 h, Postemergence, 250 g ai/ha, scale 0 to 100 (0 no effect, 100 complete control), 13 to 15 days, read-out: Plant response rating, Ragweed) | pest or weed control at 250 g/ha ([6]; Bromus tectorum, post-emergence, Postemergence, 250 g ai/ha, scale 0 to 100 (0 no effect, 100 complete control), 13 to 15 days, read-out: Plant response rating, Bromegrass, Downy)
98: Ragweed plant response rating [4, 9]
98%: pest or weed control at 62 g/ha [2, 10] | pest or weed control at 125 g/ha ([4]; Ambrosia artemisiifolia, post-emergence, 360 h, Postemergence, scale 0 (no effect) to 100 (complete control), 13 to 15 days, read-out: Plant response rating, Ragweed) | pest or weed control at 125 g/ha ([4]; Ambrosia artemisiifolia, pre-emergence, 360 h, Preemergence, scale 0 to 100, 0 no effect, 100 complete control, read-out: Plant response rating, Ragweed)
60%: pest or weed control at 125 g/ha ([6]; Bromus tectorum, pre-emergence, Preemergence, scale 0 to 100, 0 no effect, 100 complete control, read-out: Plant response rating, Bromegrass, Downy) | pest or weed control at 31 g/ha ([7]; 31 g ai/ha, 0 to 100 scale (0 no effect, 100 complete control))
80%: pest or weed control at 31 g/ha [2, 10] | pest or weed control at 62 g/ha [5, 13]
65%: pest or weed control at 31 g/ha ([5]; Cyperus, post-emergence, Postemergence, 0 to 100 scale (0 no effect, 100 complete control), read-out: Plant response rating, Nutsedge, Yellow) | pest or weed control at 62 g/ha ([5]; Cyperus, post-emergence, Postemergence, scale 0 to 100 (0 no effect, 100 complete control), read-out: Plant response rating, Nutsedge, Yellow) | pest or weed control at 31 g/ha [5, 13]
95: Nutsedge, Yellow plant response rating [5, 9]
75%: pest or weed control at 31 g/ha [3, 11]
40%: pest or weed control at 62 g/ha [6, 14]
85%: pest or weed control at 31 g/ha [4, 12] | pest or weed control at 250 g/ha ([5]; Cyperus, post-emergence, Postemergence, 250 g ai/ha, scale 0 to 100 (0 no effect, 100 complete control), 13 to 15 days, read-out: Plant response rating, Nutsedge, Yellow) | pest or weed control at 62 g/ha ([7]; 62 g ai/ha, scale 0 to 100 (0 no effect, 100 complete control)) | pest or weed control at 125 g/ha ([7]; 125 g ai/ha, scale 0 (no effect) to 100 (complete control), 13 to 15 days)
95%: pest or weed control at 31 g/ha ([1]; Digitaria sanguinalis, post-emergence, Postemergence, 0 to 100 scale (0 no effect, 100 complete control), read-out: Plant response rating, Crabgrass, Large) | pest or weed control at 62 g/ha ([2]; Urochloa decumbens, post-emergence, Postemergence, scale 0 to 100 (0 no effect, 100 complete control), read-out: Plant response rating, Surinam Grass) | pest or weed control at 31 g/ha ([3]; Eriochloa villosa, post-emergence, Postemergence, 0 to 100 scale (0 no effect, 100 complete control), read-out: Plant response rating, Cupgrass, Woolly) | pest or weed control at 62 g/ha ([3]; Eriochloa villosa, post-emergence, Postemergence, scale 0 to 100 (0 no effect, 100 complete control), read-out: Plant response rating, Cupgrass, Woolly) | pest or weed control at 62 g/ha [3, 11] | pest or weed control at 125 g/ha ([3]; Eriochloa villosa, pre-emergence, Preemergence, scale 0 to 100, 0 no effect, 100 complete control, read-out: Plant response rating, Cupgrass, Woolly) | pest or weed control at 62 g/ha ([4]; Ambrosia artemisiifolia, post-emergence, 360 h, Postemergence, scale 0 to 100 (0 no effect, 100 complete control), read-out: Plant response rating, Ragweed) | pest or weed control at 62 g/ha [4, 12] | pest or weed control at 125 g/ha ([6]; Bromus tectorum, post-emergence, Postemergence, scale 0 (no effect) to 100 (complete control), 13 to 15 days, read-out: Plant response rating, Bromegrass, Downy) | pest or weed control at 250 g/ha ([7]; 250 g ai/ha, scale 0 to 100 (0 no effect, 100 complete control), 13 to 15 days)
100: Crabgrass, Large plant response rating [1, 9] | Surinam Grass plant response rating [2, 9] | Cupgrass, Woolly plant response rating [3, 9]
0%: pest or weed control at 31 g/ha [6, 14]
70%: pest or weed control at 125 g/ha ([5]; Cyperus, post-emergence, Postemergence, scale 0 (no effect) to 100 (complete control), 13 to 15 days, read-out: Plant response rating, Nutsedge, Yellow) | pest or weed control at 62 g/ha ([6]; Bromus tectorum, post-emergence, Postemergence, scale 0 to 100 (0 no effect, 100 complete control), read-out: Plant response rating, Bromegrass, Downy)
70: Bromegrass, Downy plant response rating [6, 9]
50%: pest or weed control at 31 g/ha ([6]; Bromus tectorum, post-emergence, Postemergence, 0 to 100 scale (0 no effect, 100 complete control), read-out: Plant response rating, Bromegrass, Downy)
90%: pest or weed control at 31 g/ha ([2]; Urochloa decumbens, post-emergence, Postemergence, 0 to 100 scale (0 no effect, 100 complete control), read-out: Plant response rating, Surinam Grass) | pest or weed control at 31 g/ha ([4]; Ambrosia artemisiifolia, post-emergence, 360 h, Postemergence, 0 to 100 scale (0 no effect, 100 complete control), read-out: Plant response rating, Ragweed) | pest or weed control at 125 g/ha ([5]; Cyperus, pre-emergence, Preemergence, scale 0 to 100, 0 no effect, 100 complete control, read-out: Plant response rating, Nutsedge, Yellow)
